How the values were obtained:
[1] = system: spasticity in amyotrophic lateral sclerosis; details: riluzole sold as Rilutek for ALS; cited from earlier work
[2] = system: stiffness (spasticity) in patients suffering from ALS; assay: Descriptive study on 9 ALS patients: stiffness self-assessed on a 100 mm visual analog scale (VAS) before and after nicergoline; format: in vivo, human (patients)
Method: A descriptive study on 9 patients suffering from ALS was carried out. The main criterion defined is the stiffness, measured using a visual analog scale (VAS), of 100 mm, or the individual rates by self-assessment the severity of the stiffness perceived. The patients receive 100 mg/day of riluzole and 15 mg IV of nicergoline on the first day and 30 mg IV on the next 4 days. The duration of infusion was more than 4 hours to avoid any risk of hypotension. The measurement was carried out before and after administration of nicergoline.

SMILES | Effect on spasticity (in words) [1] | Stiffness (VAS, 100 mm) after administration of nicergoline, mean±standard deviation ([2]; 9 ALS patients on riluzole 100 mg/day, nicergoline 15 mg IV day 1, 30 mg IV next 4 days, measured 4 days later (from 4 to 8 d), stiffness before administration 67.33±25) | Intra-individual difference in stiffness (VAS) before vs after nicergoline, mean±standard deviation ([2]; 9 ALS patients, same regimen, range −8 to +57, comparison at zero difference significant (t=2.809, p (2α)=0.0229)) | Effect on pyramidal spasticity of neurological diseases involving an attack of the pyramidal pathway (in words) ([2]; in particular spasticity during ALS)
Nc1nc2ccc(OC(F)(F)F)cc2s1 [Riluzole, 2-amino-6-trifluoro-methoxybenzothiazole] | no effect on the spasticity | – | – | –
CO[C@]12C[C@@H](COC(=O)c3cncc(Br)c3)CN(C)[C@@H]1Cc1cn(C)c3cccc2c13 [nicergoline, (8β)-10-methoxy-1,6-dimethylergoline-8-methanol-5-bromonicotinate] | – | 48.11±19 mm | 19.22±20.5 mm | reduces the pyramidal spasticity

— patent publication US6713493B2, “Use of nicergoline in the treatment of spasticity” (Aventis Pharma S.A., priority 1998, dated 2004)
